From US20220304309A1, “IRON COMPLEXES AND USES THEREFOR” (priority 2019, published 2022) come the findings set out here.

“Also recorded” adds a separate entry of the source. Where two headings read alike, the source gives them in different places. Bounds are passed on as bounds.

One data set concerns X. campestris. Conditions: for A600: 36 hours at 28° C.
The nature of data set [1]: Fenton activity test with H2O2 and methylene blue.
The nature of data set [2]: Stability of ferrous iron complexes in solution over 180 days. To be noted: for Ferrous iron / Total iron: room temperature in the dark; for Stability of solutions of the complex: stored at ambient temperature (TFDC in the dark).
Data set [3] is described as follows: Total, ferrous and ferric iron content of the complexes immediately after preparation (1,10-phenanthroline). To be noted: 50 mM solution; for Ferric iron: total minus ferrous.
Data set [4] has as its system Pectobacterium carotovorum subsp. brasiliense (Pcb). The data set can be described thus: In planta trial on Pcb-infiltrated potato tubers. Conditions: weekly foliar spray or root drench.
A short description of data set [5]: Reduction of ferric iron in the ferric tri-pyruvate complex over 10 days. It counts as physicochemical. Here is the method: A 50 mM solution of the ferric tri-pyruvate complex was prepared as described in Example 5. The stability of the complex was measured by determining the total iron, ferrous iron and ferric iron over the course of 10 days.
The next data set has as its system spores of B. subtilis. The experiment in a line: Decontamination of surfaces contaminated with B. subtilis spores. Type of data set: cell-based, Bacillus subtilis. To be noted: swabbing or spraying, optionally mixed with ascorbate and/or hydrogen peroxide. The protocol:
In additional experiments, surfaces that have been intentionally contaminated with spores of B. subtilis are wiped or sprayed with solutions of FDP (e.g., 1 mM, 2 mM, 3 mM, 4 mM, 5 mM, 6 mM, 7 mM, 8 mM, 9 mM, 10 mM, 12.5 mM, 15 mM, 20 mM, 25 mM, 50 mM, 75 mM 100 mM or more); optionally including ascorbate (e.g. 10 mM) and/or hydrogen peroxide at a concentration of, e.g., 1 mM or less, 2 mM or less, 3 mM or less, 4 mM or less, 5 mM or less, 6 mM or less, 7 mM or less, 8 mM or less, 9 mM or less, 10 mM or less, 12.5 mM or less, 15 mM or less, 20 mM or less, 25 mM or less, 30 mM or less, 40 mM or less, 50 mM or less, 60 mM or less, 70 mM or less, 80 mM or less, 90 mM or less, 100 mM or less, 125 mM or less, 150 mM or less, 175 mM or less, or 200 mM or less. The surfaces are then swabbed, the swabs are suspended in water or medium, and CFU are determined by plating aliquots of serial dilutions of the liquid in which the swabs were suspended.

The next data set concerns C. liberibacter spp. Type of data set: in vivo, rough lemon trees. Conditions: 50 μM, foliar or root drench, every three days over three months.
In a further data set the test system is Bacillus subtilis. The data set can be described thus: Bactericidal and sporicidal activity on Bacillus subtilis cells or spores suspended in water. Type of data set: cell-based. Conditions: increasing concentrations and exposure times; 10 mM sodium ascorbate, sub-inhibitory hydrogen peroxide. The protocol:
Because of its activity as a Fenton reagent, FDP produces reactive oxygen species (e.g. hydroxyl radicals, superoxide radicals) that are toxic to bacterial spores and spore-forming bacteria. […] After exposure to FDP for various periods of time, the number of viable colony-forming units is determined by plating aliquots of serial dilutions of the solutions.

[6] abbreviates: 1 ml 50 mM complex + 1 ml 40% H2O2, 0.1% (w/v) methylene blue, 1 hour at ambient temperature.
Setting [7] is: 60 Days after complex formation.
Setting [8] is: 180 Days after complex formation.
[9] abbreviates: 0 days after complex formation, 50 mM solution.
[10] abbreviates: 1 day after complex formation, 50 mM solution.
Setting [11] is: 7 days after complex formation, 50 mM solution.
Where [12] appears, read: 10 days after complex formation, 50 mM solution.

Turning to `O=C1O[C@H]([C@@H](O)CO)C([O-])=C1O.[Na+]` [ascorbate, sodium ascorbate, reference compound], in the data set with X. campestris (no preincubation, addition 5 mM ascorbate), the A600 is 0.512.

Regarding `O=C([O-])CC(O)(CC(=O)[O-])C(=O)[O-].O=C([O-])CC(O)(CC(=O)[O-])C(=O)[O-].[Fe+2].[Fe+2].[Fe+2]` [tri-ferrous di-citrate], the “Fenton activity (loss of blue color, brown precipitate)” value in data set [1] (setting [6]) is recorded as “exhibited Fenton activity”; in data set [1] (1 ml 50 mM complex + 1 ml 40% H2O2, 0.1% (w/v) methylene blue, 1 hour at ambient temperature, listed as tri-ferrous di-citrate complex), “significant Fenton activity”. The “Light sensitivity on storage” value in [2] was “must be stored in the dark to prevent autodegradation”. The Ferrous iron in data set [2] (1 Day after complex formation) worked out at 100 mM; in data set [2] (setting [7]) it was 99 mM; in [2] (setting [8]), 98 mM; in [3] it was 49.7 mM. The Total iron in [2] (1 Day after complex formation) came out at 100 mM; in data set [2] (setting [7]), 100 mM; in data set [2] (setting [8]), 100 mM; in data set [3], 50 mM. For the same compound, the “Stability of solutions of the complex” value in [2] was “stable for up to six months”. This compound also registered a Ferric iron in data set [3] of less than 1 mM. Besides, the “Symptoms of Pcb infection in potato plants” value in [4] is “reduce symptom of Pcb infection”.

On to “ferric tri-pyruvate [ferric tri-pyruvate complex]”, for which the Ferric iron was more than 49 mM in data set [5] (setting [9]), 39 mM in data set [5] (setting [10]), 2 mM in data set [5] (setting [11]) and 2 mM in [5] (setting [12]). The Ferrous iron is given as less than 1 mM in [5] (setting [9]), 11 mM in data set [5] (setting [10]), 48 mM in data set [5] (setting [11]) and 48 mM in data set [5] (setting [12]). Moreover, the Total iron in [5] (setting [9]), in data set [5] (setting [10]), in data set [5] (setting [11]) and in data set [5] (setting [12]) was 50 mM each time. For the same compound, the “Oxidation state of the iron upon formation of the complex” value in data set [5] (50 mM solution) was “essentially all the iron was in the ferric oxidation state”. Further, the “Reduction of ferric ions to ferrous” value is “essentially all iron is in the ferrous oxidation state; also recorded: essentially all the ferric iron was reduced to the ferrous oxidation state” in [5] (after one week (7-day period)) and “approximately one-fifth of ferric ions have been reduced to ferrous” in data set [5] (within one day after formation of the complex, ambient conditions). Besides, the “Fenton activity (loss of blue color, brown precipitate)” value in data set [1] (14-day old reduced complex, 50 mM + 40% H2O2, 1 hour at ambient temperature) is “significant Fenton activity”.

In the case of ferrous di-pyruvate, the “Sterilization of surfaces contaminated with B. subtilis spores” value in the data set on spores of B. subtilis is recorded as “sterilizes the surfaces”. Also, the “Effect on growth of X. campestris (in words)” value in the data set with X. campestris (Table 5, most pronounced after preincubation with ascorbate and copper) is recorded as “able to block the growth of X. campestris”. In addition, the “Killing of X. campestris (in words)” value in the data set on X. campestris (Table 6, most pronounced after preincubation with ascorbate and copper) is given as “able to kill X. campestris”. For the same compound, the CFU with X. campestris (no preincubation, addition 5 mM ascorbate + 5 μM Cu(II) + 0.25 mM FDP, 36 hour treatment) is 2.28 × 10^9 CFU per ml. Moreover, the A600 is given as 0.420 in the data set on X. campestris (no preincubation, addition 5 mM ascorbate + 5 μM Cu(II) + 0.25 mM FDP) and 0.447 with X. campestris (no preincubation, addition 5 mM ascorbate + 0.25 mM FDP). Besides, the “Fenton activity (loss of blue color, brown precipitate)” value in [1] (setting [6]) is recorded as “exhibited Fenton activity”; in data set [1] (1 ml 50 mM complex + 1 ml 40% H2O2, 0.1% (w/v) methylene blue, 1 hour at ambient temperature, listed as ferrous di-pyruvate complex) it was “significant Fenton activity”. For the same compound, the Ferrous iron in [2] (1 Day after complex formation) came to 99 mM; in data set [2] (setting [7]), 97 mM; in data set [2] (setting [8]), 98 mM; in [3] it was 49.5 mM. Also, the Total iron in data set [2] (1 Day after complex formation) is reported as 100 mM; in [2] (setting [7]), 100 mM; in data set [2] (setting [8]) it was 100 mM; in [3], 50 mM. Further, the “Stability of solutions of the complex” value in data set [2] is “stable for up to six months”. Further, the “Number of leaf and root samples containing C. liberibacter spp nucleic acid (PCR)” value with C. liberibacter spp is “reduces the number of leaf and root samples containing C. liberibacter spp nucleic acid”. Also, in the data set with C. liberibacter spp, the “Number of plants showing signs of chlorosis” value was “reduces the number of plants showing signs of chlorosis”. Moreover, in the data set with Bacillus subtilis, the “Cell killing of B. subtilis cells or spores (viable CFU)” value is reported as “higher levels of cell killing”. Moreover, the Ferric iron in [3] is on record as less than 1 mM. Besides, the “Symptoms of Pcb infection in potato plants” value in [4] was “reduce symptom of Pcb infection”.

In the case of “mono-ferrous di-citrate [mono-ferrous di-citrate complex, reference compound]”, in data set [1] (setting [6]), the “Fenton activity (loss of blue color, brown precipitate)” value is given as “little to no Fenton activity”.

For the compound “mono-ferrous mono-citrate [mono-ferrous mono-citrate complex, reference compound]”, in data set [1] (setting [6]), the “Fenton activity (loss of blue color, brown precipitate)” value is “little to no Fenton activity”.
